The source of these data is patent US6413937B1, “Combinations for use in increasing the potency of a substrate for multidrug resistance related protein” (Dublin City University and Enterprise Ireland, priority 1996, dated 2002).

The structures appear in SMILES notation.

One assay concerns DLKP-A cell line. Nature of the assay: miniaturised in vitro colorimetric cell survival assay, P-170 overexpressing DLKP-A. The class given is cell-based, human. The procedure:
All the results presented in this Example for the DLKP, A549 and OAW42-SR cell lines were derived using the same miniaturised in vitro calorimetric assay system. On Day 1 of the assay 1000 cells/well/100 μl were plated into 96-well plates. Cells were allowed to attach overnight and cell viability was visually assessed. On Day 2 the two drugs (i.e. NSAID plus chemotherapeutic drug) to be analysed were added onto the cells. The individual drugs were added separately in 50 μl quantities (4× stocks, to take into account the dilution effect of having 200 μl final volume in each well). The drugs were left on the cells for five further days (Day 7) and cell number was determined using the acid phosphatase end-point assay which uses p-nitrophenol phosphate as substrate (Martin, A. and Clynes, M. (1991) In Vitro Dev. Biol., 27A, 183-184). On Day 7 the culture medium was removed from the cells and they were washed once with phosphate buffered saline (PBS). After washing, 100 μl of freshly prepared substrate-containing buffer (0.1% Triton X-100 in 0.1M sodium acetate, pH 5.5) was added to each well and the plates were left in an incubator at 37° C. for 2 h. After the incubation period 50 μl of 1N NaOH was added to each well to develop the colour. The plates were then read at 405 nm (reference 620 nm) on an ELISA plate-reader.
In the results given below the % cell survival in the drug-free control is 100%. All results are the cell survival means ±S.D. from a minimum of three experiments.
v) is an example of a positive NSAID plus a positive drug on a P-170 overexpressing cell line: DLKP-A;

Assay [1] relates to COR L23 P (non-MRP) cells. The conditions noted are these: doxorubicin 10 mg/ml alone or with sulindac 20 mg/ml, 1, 2, 4 h, FIG. 4.
Experimental: 10^6 COR L23 P (parental non-MRP resistant, MRP−) or COR L23 R (MRP resistant, MRP+) cells were added to 75 cm^3 vented flasks containing HEPES buffered Rosemount Park Memorial Institute (RPMI) medium and maintained at 37° C. in a 5% CO2 atmosphere. […] After three days of growth, doxorubicin (final concentration 10 mg/ml), sulindac (final concentration 20 mg/ml) or doxorubicin and sulindac were added to individual flasks. Samples were taken after 1, 2 and 4 h. and assayed for drug content.
The contents of each flask were washed twice with 5 ml of PBS and stored at −70° C. The flasks were thawed and 100 μl of water and 100 μl of 33% silver nitrate added to each and mixed for 5 min. […]
The extract was resuspended in 50 μl of methanol in the sample vial and loaded into the HPLC autosampler. […] The mobile phases were pumped through a C18 reversed-phase Ultrasphere XL (Beckman) HPLC column (4.6×70 mm) with absorbance measured at 253 nm. […] The amount of doxorubicin and sulindac present was quantified by measuring the peak height of these drugs and the internal standard. […] The concentration of doxorubicin in the samples was calculated from the) nd development standard line using the peak height ratio. The sulindac concentrations were calculated by the same method.
In the next assay the test system is HL-60S cells. Nature of the assay: etoposide-induced apoptosis (nuclear fragmentation), HL-60S. Type of assay: cell-based. To be noted: HL-60S (sensitive); etoposide with sulindac; FIG. 2. The procedure: (§1) An experiment was carried out to determine the effect of the NSAID sulindac on etoposide-induced apoptosis in two cell lines, namely HL-60S and HL-60ADR. These cell lines were donated by Dr. Melvin Center, Kansas State University, Manhattan Kans. 66506, U.S.A. For the HL-60S and ADR cell lines the percentage of apoptotic cells within the cell population, following drug exposure, was used to quantify toxicity. Cells were plated in fresh medium at a concentration of 10^6 cells/ml in a 24-well plate (Greiner) and drugs were then added to the wells. A 200 μl sample from each well was taken after 4 and 8 hrs. Samples were cytospun for 2 min at 500 rpm using a Shandon Cytofuge3. After air-drying the cytospins were stained using a Romanowsky staining kit, Rappi-Diff II (Langanbach), dried and mounted in DPX (BDH). Slides were studied on an Optiphot microscope (Nikon) fitted with a 40× objective, and visualised on a monitor via a Mitsubishi CCD-100E colour CCD-camera and a 0.6× relay lens. Nuclear fragmentation was used as a morphological marker for apoptosis and a minimum of 200 cells were assessed in at least three different microscopic fields. Results were expressed as the percentage of apoptotic cells within the population. Each experiment was repeated in duplicate.

For another assay, the system named is HL-60ADR cells. Put plainly: etoposide-induced apoptosis (nuclear fragmentation), HL-60ADR. The class given is cell-based. To be noted: HL-60ADR (resistant); etoposide alone or co-treated with sulindac; FIG. 1. As for the experimental part:
as §1

The test system of another assay is DLKP-7 cells. Nature of the assay: adriamycin efflux from loaded cells, HPLC. The class given is cell-based. As for the experimental part:
DLKP-7 cells were seeded into 75 cm^2 flasks at 0.5×10^6 cells/10 ml ATCC medium. The cells were left for 2 days, the ATCC medium was removed and fresh medium containing adriamycin (0.5 μg/ml) was added. Following a 2 hour incubation this medium was removed, the flasks were washed twice with PBS, 10 ml ATCC medium or ATCC medium containing the test NSAID was added, and the cells were incubated for a further 4 hr. The cells were trypsinised and the pellet was frozen at −20° C. Duplicate flasks for each time point were prepared. The NSAIDs used were indomethacin 10 μg/ml and piroxicam 20 μg/ml.
The amount of adriamycin in the cells was quantified using liquid-liquid extraction and reverse-phase HPLC analysis. The frozen cell pellets were thawed and resuspended in […] of water/100 μl of 33% silver nitrate and mixed for 5 min. 300 μl of methanol, containing 1.5 μg of daunorubicin as an internal standard (IS), and 1.3 ml of acetonitrile were then added and the tubes mixed for a further 5 min. The mixture was transferred to glass tubes and kept at 4° C. for 1 hr. The tubes were then centrifuged at 1000 g for 15 min. to pellet any solid material. 1.1 ml of the supernatant was removed to HPLC autosampler vials (Labquip, Dublin, Ireland). The solvent was evaporated off at room temperature under a stream of nitrogen gas.
The extract was resuspended in 50 μl of mobile phase 1 (MP1): 32 ml of 0.1 M phosphoric acid mixed with 244 ml of ultrapure water, pH: 2.3 (adjusted upwards with a few drops of 1N potassium hydroxide) to which 124 ml of acetonitrile was added and the final mixture was degassed in a sonicating bath for 5 min. The second mobile phase (MP2) consisted of acetonitrile. The resuspended sample (20 μl) was automatically injected into the HPLC system. The HPLC system comprised a Beckman System Gold 507 autosampler, 125 pump and 166 detector. The MP was pumped through a C18 reversed-phase Prodigy 5 μm particle size ODS-3 column (Phenomenex, Macclesfield, England) (dimensions 150×4.6mm) and absorbance was measured at 253 nm. For the first 14 min. of the chromatographic run MP 1 was pumped at 0.5 ml/min. From 14 min. to 20 min. the column was switched to MP 2. At 20 min. the column was switched back to MP 1 and the flow rate increased to 1 ml/min. At 30 min. the flow rate was brought back to 0.5 ml/min. The run continued for a further 5 min. giving a total run time of 35 min. The amount of adriamycin present was quantified by measuring its peak area and the peak area of the IS. The peak area of the adriamycin was divided by the area of the IS peak and the ratio plotted against a concentration series for spiked adriamycin samples.

In another assay the test system is GSTs. To be noted: cited from earlier work.

On to `CC1=C(CC(=O)O)c2cc(F)ccc2/C1=C\c1ccc([S+](C)[O-])cc1` (stereo not shown) [Sulindac, sulindac], for which the “% cell survival” value was found to be 108.9 ± 8.0% in the assay on DLKP-A cell line (v) Sulindac 1.5 μg/ml, alone or + Vincristine 1.0 μg/ml); 86.30 ± 13.7% in the assay with DLKP-A cell line (v) Sulindac 3 μg/ml, alone or + Vincristine 1.0 μg/ml); 105.7 ± 5.2% in the assay on DLKP-A cell line (v) Sulindac alone (concentration not given) or Sulindac 6 μg/ml + Vincristine 1.0 μg/ml). For the same compound, the “doxorubicin level in the cells” value in assay [1] is listed as “regardless of the co-treatment with sulindac”. The “etoposide-induced apoptosis, percentage of apoptotic cells” value in the assay on HL-60S cells was “the increased apoptosis is only due to an additive effect of both etoposide and sulindac”; in the assay with HL-60ADR cells it was “a significant increase in the amount of cells dying by apoptosis is observed”.
Turning to `COc1ccc2c(c1)c(CC(=O)O)c(C)n2C(=O)c1ccc(Cl)cc1` [Indomethacin, indomethacin], in the assay with DLKP-7 cells (cells loaded with adriamycin 0.5 μg/ml 2 h, indomethacin 10 μg/ml, piroxicam 20 μg/ml, 0 h), the “% Adriamycin content at 0 h” value was 100%. Further, the “% Adriamycin content at 4 h” value in the assay on DLKP-7 cells (cells loaded with adriamycin 0.5 μg/ml 2 h, indomethacin 10 μg/ml, piroxicam 20 μg/ml, 4 h) worked out at 109 ± 4%. Further, the “level of adriamycin within the treated cells” value in the assay on DLKP-7 cells (during the 4 hours of the experiment) is given as “remained constant during the 4 hours of the experiment”. The “inhibition of GSTs” value with GSTs was “inhibitor of GSTs”.
